Calls of active or inactive are those of the source. How the calls were made is not given here.
Test system: CCRIS mutagenicity, Ames/micronucleus/aberration tests
Assay: CCRIS mutagenicity studies
[1] = Test System: AMES SALMONELLA TYPHIMURIUM, Strain/Indicator: TA98, Metabolic Activation: NONE, Method: STANDARD PLATE
[2] = Test System: AMES SALMONELLA TYPHIMURIUM, Strain/Indicator: TA98, Metabolic Activation: RAT, LIVER, S-9, AROCLOR 1254, Method: STANDARD PLATE
[3] = Test System: AMES SALMONELLA TYPHIMURIUM, Strain/Indicator: TA100, Metabolic Activation: NONE, Method: STANDARD PLATE
[4] = Test System: AMES SALMONELLA TYPHIMURIUM, Strain/Indicator: TA100, Metabolic Activation: RAT, LIVER, S-9, AROCLOR 1254, Method: STANDARD PLATE
[5] = Test System: AMES SALMONELLA TYPHIMURIUM, Strain/Indicator: TA1535, Metabolic Activation: NONE, Method: STANDARD PLATE
[6] = Test System: AMES SALMONELLA TYPHIMURIUM, Strain/Indicator: TA1535, Metabolic Activation: RAT, LIVER, S-9, AROCLOR 1254, Method: STANDARD PLATE
[7] = Test System: AMES SALMONELLA TYPHIMURIUM, Strain/Indicator: TA1537, Metabolic Activation: NONE, Method: STANDARD PLATE
[8] = Test System: AMES SALMONELLA TYPHIMURIUM, Strain/Indicator: TA1537, Metabolic Activation: RAT, LIVER, S-9, AROCLOR 1254, Method: STANDARD PLATE
[9] = Test System: AMES SALMONELLA TYPHIMURIUM, Strain/Indicator: TA1538, Metabolic Activation: NONE, Method: STANDARD PLATE
[10] = Test System: AMES SALMONELLA TYPHIMURIUM, Strain/Indicator: TA1538, Metabolic Activation: RAT, LIVER, S-9, AROCLOR 1254, Method: STANDARD PLATE
[11] = Test System: MOUSE LYMPHOMA, Strain/Indicator: L5178Y (TK+/TK-), Metabolic Activation: NONE, Method: SUSPENSION/PLATE
[12] = Test System: MOUSE LYMPHOMA, Strain/Indicator: L5178Y (TK+/TK-), Metabolic Activation: RAT, LIVER, S-9, AROCLOR 1254, Method: SUSPENSION/PLATE

Question: With CCC1(c2ccccc2)C(=O)NC(=O)NC1=O as the compound, how does the mutagenic call (Test System: AMES SALMONELLA TYPHIMURIUM, Strain/Indicator: TA97, Metabolic Activation: HAMSTER LIVER S-9, AROCLOR 1254 (10%), Method: PREINCUBATION) read?
Answer: inactive; negative

Question: What about the mutagenic call (Test System: AMES SALMONELLA TYPHIMURIUM, Strain/Indicator: TA97, Metabolic Activation: NONE, Method: PREINCUBATION) of the same compound?
Answer: inactive; negative

Question: And the mutagenic call (Test System: AMES SALMONELLA TYPHIMURIUM, Strain/Indicator: TA97, Metabolic Activation: NONE, Method: STANDARD PLATE)?
Answer: inactive; negative

Question: And the mutagenic call (Test System: AMES SALMONELLA TYPHIMURIUM, Strain/Indicator: TA97, Metabolic Activation: RAT LIVER S-9, AROCLOR 1254 (10%), Method: PREINCUBATION)?
Answer: inactive; negative

Question: What about the mutagenic call (Test System: AMES SALMONELLA TYPHIMURIUM, Strain/Indicator: TA97, Metabolic Activation: S-9, Method: STANDARD PLATE) of the same compound?
Answer: inactive; negative

Question: And the mutagenic call (Test System: AMES SALMONELLA TYPHIMURIUM, Strain/Indicator: TA98, Metabolic Activation: HAMSTER LIVER S-9, AROCLOR 1254 (10%), Method: PREINCUBATION)?
Answer: inactive; negative

Question: What about the mutagenic call (Test System: AMES SALMONELLA TYPHIMURIUM, Strain/Indicator: TA98, Metabolic Activation: NONE, Method: PREINCUBATION) of the same compound?
Answer: inactive; negative

Question: And the mutagenic call [1]?
Answer: inactive; negative

Question: What about the mutagenic call (Test System: AMES SALMONELLA TYPHIMURIUM, Strain/Indicator: TA98, Metabolic Activation: RAT LIVER S-9, AROCLOR 1254 (10%), Method: PREINCUBATION) of the same compound?
Answer: inactive; negative

Question: And the mutagenic call [2]?
Answer: inactive; negative

Question: And the mutagenic call (Test System: AMES SALMONELLA TYPHIMURIUM, Strain/Indicator: TA98, Metabolic Activation: S-9, Method: STANDARD PLATE)?
Answer: inactive; negative

Question: And the mutagenic call (Test System: AMES SALMONELLA TYPHIMURIUM, Strain/Indicator: TA100, Metabolic Activation: HAMSTER LIVER S-9, AROCLOR 1254 (10%), Method: PREINCUBATION)?
Answer: inactive; negative

Question: And the mutagenic call (Test System: AMES SALMONELLA TYPHIMURIUM, Strain/Indicator: TA100, Metabolic Activation: NONE, Method: PREINCUBATION)?
Answer: inactive; negative

Question: And the mutagenic call [3]?
Answer: inactive; negative

Question: And the mutagenic call (Test System: AMES SALMONELLA TYPHIMURIUM, Strain/Indicator: TA100, Metabolic Activation: RAT LIVER S-9, AROCLOR 1254 (10%), Method: PREINCUBATION)?
Answer: inactive; negative

Question: And the mutagenic call [4]?
Answer: inactive; negative

Question: And the mutagenic call (Test System: AMES SALMONELLA TYPHIMURIUM, Strain/Indicator: TA100, Metabolic Activation: S-9, Method: STANDARD PLATE)?
Answer: inactive; negative

Question: And the mutagenic call (Test System: AMES SALMONELLA TYPHIMURIUM, Strain/Indicator: TA102, Metabolic Activation: NONE, Method: STANDARD PLATE)?
Answer: inactive; negative

Question: And the mutagenic call (Test System: AMES SALMONELLA TYPHIMURIUM, Strain/Indicator: TA102, Metabolic Activation: S-9, Method: STANDARD PLATE)?
Answer: inactive; negative

Question: What about the mutagenic call (Test System: AMES SALMONELLA TYPHIMURIUM, Strain/Indicator: TA1535, Metabolic Activation: HAMSTER LIVER S-9, AROCLOR 1254 (10%), Method: PREINCUBATION) of the same compound?
Answer: inactive; negative

Question: What about the mutagenic call [5] of the same compound?
Answer: active; positive

Question: What about the mutagenic call (Test System: AMES SALMONELLA TYPHIMURIUM, Strain/Indicator: TA1535, Metabolic Activation: RAT LIVER S-9, AROCLOR 1254 (5 OR 10%), Method: PREINCUBATION) of the same compound?
Answer: inactive; negative

Question: What about the mutagenic call [6] of the same compound?
Answer: inactive; negative

Question: What about the mutagenic call [7] of the same compound?
Answer: inactive; negative

Question: What about the mutagenic call [8] of the same compound?
Answer: inactive; negative

Question: What about the mutagenic call [9] of the same compound?
Answer: inactive; negative

Question: What about the mutagenic call [10] of the same compound?
Answer: inactive; negative

Question: And the mutagenic call (Test System: CHINESE HAMSTER V-79, Strain/Indicator: V-79/6-THIOGUANINE, Metabolic Activation: NONE, Method: REPLATING)?
Answer: active; positive

Question: And the mutagenic call (Test System: MOUSE LYMPHOMA, Strain/Indicator: L5178Y (TK+/-)/TRIFLUROTHYMIDINE, Metabolic Activation: NONE, Method: SUSPENSION/PLATE)?
Answer: inactive; negative

Question: And the mutagenic call [11]?
Answer: inactive; negative

Question: What about the mutagenic call [12] of the same compound?
Answer: active; positive

Question: What about the mutagenic call (Test System: MOUSE LYMPHOMA, Strain/Indicator: L5178Y (TK+/TK-), Metabolic Activation: RAT, LIVER, S-9, Method: SUSPENSION/PLATE) of the same compound?
Answer: inactive; negative

Question: What about the mutagenic call (Test System: UDS RAT HEPATOCYTES, Strain/Indicator: BROMODEOXYURIDINE INCORP, Metabolic Activation: NONE, Method: FLOW CYTOMETRIC ANALYSIS) of the same compound?
Answer: inactive; negative

Question: What about the mutagenic call (Test System: UDS RAT HEPATOCYTES, Strain/Indicator: THY INCORP, Metabolic Activation: NONE, Method: AUTORADIOGRAPHY) of the same compound?
Answer: inactive; negative

Question: What about the mutagenic call (Test System: UDS RAT HEPATOCYTES, Strain/Indicator: THY INCORP, Metabolic Activation: NONE, Method: LIQUID SCINTILLATION COUNTING) of the same compound?
Answer: inactive; negative

Question: What does the source list for CC(C)C1=CC2=CC[C@@H]3[C@](C)(CCC[C@@]3(C)C(=O)O)[C@H]2CC1?
Answer: mutagenic call (Test System: AMES SALMONELLA TYPHIMURIUM, Strain/Indicator: TA98, Metabolic Activation: HAMSTER, LIVER, S-9, AROCLOR 1254, Method: STANDARD PLATE): inactive; negative; mutagenic call [1]: inactive; negative; mutagenic call [2]: inactive; negative; mutagenic call (Test System: AMES SALMONELLA TYPHIMURIUM, Strain/Indicator: TA100, Metabolic Activation: HAMSTER, LIVER, S-9, AROCLOR 1254, Method: STANDARD PLATE): inactive; negative; mutagenic call [3]: inactive; negative; mutagenic call [4]: inactive; negative; mutagenic call (Test System: AMES SALMONELLA TYPHIMURIUM, Strain/Indicator: TA1535, Metabolic Activation: HAMSTER, LIVER, S-9, AROCLOR 1254, Method: STANDARD PLATE): inactive; negative; mutagenic call [5]: inactive; negative; mutagenic call [6]: inactive; negative; mutagenic call (Test System: AMES SALMONELLA TYPHIMURIUM, Strain/Indicator: TA1537, Metabolic Activation: HAMSTER, LIVER, S-9, AROCLOR 1254, Method: STANDARD PLATE): inactive; negative; mutagenic call [7]: inactive; negative; mutagenic call [8]: inactive; negative; mutagenic call (Test System: AMES SALMONELLA TYPHIMURIUM, Strain/Indicator: TA1538, Metabolic Activation: HAMSTER, LIVER, S-9, AROCLOR 1254, Method: STANDARD PLATE): inactive; negative; mutagenic call [9]: inactive; negative; mutagenic call [10]: inactive; negative; mutagenic call [11]: active; positive. reevaluation of results: positive; mutagenic call [12]: inactive; negative. reevaluation of results: negative
